From the METLIN SMRT retention time set (Domingo-Almenara et al. 2019)

Assay: gradient 5% acetonitrile 3 min, to 50% in 2 min, to 85% in 15 min, held 3 min, 100 µL/min
Conditions: column: Zorbax Extend-C18 2.1 x 50 mm; eluents: water / acetonitrile, 0.1% formic acid
Outline: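 Pure standards were run in mixtures of ~100 molecules by HPLC coupled to a quadrupole time-of-flight mass spectrometer. The column was a Zorbax Extend-C18 (2.1 × 50 mm, 1.8 μm) at 100 μL/min, with water and acetonitrile each containing 0.1% formic acid, in positive and negative ionization mode. Dead and dwell volumes were 40 μL and 900 μL. Retention time was taken from computationally picked adduct peaks, each manually inspected, with data collected over 3 months.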
An RP-LC retention time of 743 s was found for `COc1cc2nc(C(=O)N3CCCCC3)cc(Nc3ccc(Br)cc3)c2cc1OC` in this work.
An RP-LC retention time of 786 s was found for `O=C(CCc1nnc2c3cc(-c4ccc(F)cc4)nn3ccn12)NCCc1cccs1` in this work.
An RP-LC retention time of 630 s was found for `CCN1C(=O)C2(CCN(C(=O)c3cn(C)cn3)CC2)c2ccccc21` in this work.
An RP-LC retention time of 857 s was found for `Cc1ccc(CNC(=O)c2ccc3nn(CC(=O)NCCC4=CCCCC4)c(=O)n3c2)cc1` in this work.
An RP-LC retention time of 554 s was found for `COc1ccc(OC)c(S(=O)(=O)N2CCc3nc[nH]c3C2)c1` in this work.
An RP-LC retention time of 684 s was found for `O=S(=O)(NCCc1c[nH]c2ncccc12)c1ccc(Br)cc1` in this work.
An RP-LC retention time of 868 s was found for `COc1ccc(Cl)cc1NS(=O)(=O)c1cc2n(c1)CCN(CC(C)C)C2=O` in this work.
An RP-LC retention time of 1100 s was found for `COc1ccc(-c2cc3ccccc3[nH]2)cc1` in this work.
An RP-LC retention time of 800 s was found for `COc1ccc(C)c2sc(NC(=O)c3cc(C)no3)nc12` in this work.
An RP-LC retention time of 649 s was found for `O=C(CCC1CCCC1)NC1CCN(c2ccc(=O)[nH]n2)C1` (centres undefined) in this work.
An RP-LC retention time of 803 s was found for `O=C(NC1CC1)C1CCN(S(=O)(=O)c2ccc(-c3noc(C4CC4)n3)cc2)CC1` in this work.
An RP-LC retention time of 601 s was found for `Cc1ccc2c(Nc3ccc(F)c(Cl)c3)c(C(=O)N3CCOCC3)cnc2n1` in this work.
An RP-LC retention time of 720 s was found for `Cc1cc(N2CCOCC2)nc(N2CCN(C(=O)c3ccc(-c4ccccc4)cc3)CC2)n1` in this work.
An RP-LC retention time of 625 s was found for `COCc1cc(=O)n(CC(=O)NCc2ccc(F)c(Cl)c2)c(N)n1` in this work.
An RP-LC retention time of 670 s was found for `Cc1cc(=O)n(CC(=O)Nc2ccccc2)c(N2CCCCC2)n1` in this work.
An RP-LC retention time of 1280 s was found for `COc1ccc(NC(=O)c2c(O)c3cccnc3n(-c3cccc(F)c3)c2=O)cc1Cl` in this work.
An RP-LC retention time of 615 s was found for `O=C(COc1ccccc1)N1CCN(c2nc(CN3CCOCC3)cs2)CC1` in this work.
An RP-LC retention time of 1130 s was found for `CC(C)n1nnc2ccc(-c3noc(-c4ccccc4)n3)cc21` in this work.
An RP-LC retention time of 722 s was found for `O=C(CCc1c(-c2ccccc2)nc2ccccn12)Nc1ccc(Br)cc1F` in this work.
An RP-LC retention time of 659 s was found for `CC(C)COc1cc(=O)n2c(c1C(=O)NCCCn1cccn1)CCCCC2` in this work.
An RP-LC retention time of 1140 s was found for `O=C1CN(S(=O)(=O)c2ccccc2F)CC2(CCCCC2)N1C1CCCC1` in this work.
An RP-LC retention time of 718 s was found for `Cc1cc(N2CCOCC2)nc(N2CCN(S(=O)(=O)c3ccc(Br)cc3)CC2)n1` in this work.
An RP-LC retention time of 620 s was found for `Cc1oc(-c2[nH]ncc2C(=O)N2CCCC2)cc1S(=O)(=O)NC1CC1` in this work.
An RP-LC retention time of 616 s was found for `CC(C)NC(=O)c1ccc2c(c1)CC(=O)N2C` in this work.
An RP-LC retention time of 594 s was found for `O=C(c1ccc2cc[nH]c2c1)N1CCN(C(=O)c2cc(-c3ccncc3)n[nH]2)CC1` in this work.
An RP-LC retention time of 927 s was found for `Cc1cc(C)c(NC(=O)C2CCN(c3c(C(=O)N4CCCCC4)cnc4snc(C)c34)CC2)c(C)c1` in this work.
An RP-LC retention time of 740 s was found for `NC(=O)c1cc(-c2ccccc2F)nc2ccccc12` in this work.
An RP-LC retention time of 687 s was found for `CC(C)(NC(=O)c1cccs1)C(=O)N1CCN(c2ccccc2)CC1` in this work.
An RP-LC retention time of 790 s was found for `O=C(NCC(c1cccs1)S(=O)(=O)c1cccs1)NC1CCCCC1` (centres undefined) in this work.
An RP-LC retention time of 818 s was found for `Cc1ccc(CNC(=O)C2(C)CN(S(C)(=O)=O)CC(=O)N2c2cccc(F)c2)cc1` (centres undefined) in this work.
An RP-LC retention time of 610 s was found for `COCc1noc([C@@H]2CC(F)(F)CN2C(=O)c2cn(C)cn2)n1` in this work.
An RP-LC retention time of 659 s was found for `COCC(=O)N1CCCCCCNC(=O)[C@@H]2CCCC[C@@H]21` in this work.
An RP-LC retention time of 784 s was found for `O=C(CN1C(=O)CCc2cc(Br)ccc21)NCc1ccccc1` in this work.
An RP-LC retention time of 971 s was found for `COc1ccc(-c2noc(CN3C(=O)COc4ccc(Cl)cc43)n2)cc1OC` in this work.
An RP-LC retention time of 808 s was found for `CCn1nc(CNC(=O)c2ccc(C#N)cc2)c2ccccc21` in this work.
An RP-LC retention time of 1090 s was found for `Cc1[nH]nc(-c2c(C)sc(C)c2S(=O)(=O)NCC(C)c2ccccc2)c1C` (centres undefined) in this work.
An RP-LC retention time of 787 s was found for `COC(=O)C1=CN(c2ccccc2)c2cc(F)ccc2S1(=O)=O` in this work.
An RP-LC retention time of 1270 s was found for `CCN(C(=O)c1ccc(OC)c(OC)c1)c1nc(-c2ccc(Br)cc2)cs1` in this work.
An RP-LC retention time of 580 s was found for `COc1cccc(CN2CCc3nn(Cc4ccccc4)c(=O)n3CC2)n1` in this work.
An RP-LC retention time of 566 s was found for `COCCCNC(=O)c1ccc2c(c1)nc1n2CCCCC1` in this work.
An RP-LC retention time of 799 s was found for `Cc1nc(N2CCCC(C(=O)NC3CCCC3)C2)c2c(C)c(C)oc2n1` (centres undefined) in this work.
An RP-LC retention time of 830 s was found for `CCOC(=O)c1ccc2nc(NC(=O)c3ccco3)sc2c1` in this work.
An RP-LC retention time of 584 s was found for `Cc1ccc2[nH]c(=O)c(CCC(=O)NCc3cccnc3)cc2c1` in this work.
An RP-LC retention time of 775 s was found for `CN(Cc1cccn1C)C(=O)NC1CCCC1` in this work.
An RP-LC retention time of 809 s was found for `CCOC(=O)c1nc(N2CCN(c3ccccc3OC)CC2)c2ccccc2n1` in this work.
An RP-LC retention time of 950 s was found for `CCN1C(=O)c2cccnc2Sc2cc(NC(=O)c3ccc(C(F)(F)F)cc3)ccc21` in this work.
An RP-LC retention time of 692 s was found for `CC1(C)CN(C(=O)C2CC2)c2ccc(S(=O)(=O)N3CCN(c4ccccn4)CC3)cc21` in this work.
An RP-LC retention time of 1120 s was found for `C=CCN1C(=O)COc2ccc(-c3csc(NC(=O)c4ccc(Br)cc4)n3)cc21` in this work.
An RP-LC retention time of 995 s was found for `Cc1nc(-c2cn(C(C)C)c3ncccc23)sc1C(=O)NCc1ccccc1` in this work.
An RP-LC retention time of 755 s was found for `Cc1ccc(NC(=O)C2(C)Oc3cccnc3NC2=O)cc1F` (centres undefined) in this work.
An RP-LC retention time of 731 s was found for `CCOc1ccc(N2CCn3c2nn(Cc2ccc(C(=O)OC)o2)c(=O)c3=O)cc1` in this work.
An RP-LC retention time of 656 s was found for `Cc1ccc(C)c2c(=O)c3c([nH]c12)CCN(CC(=O)Nc1ccccc1Cl)C3` in this work.
An RP-LC retention time of 1120 s was found for `CC(C)c1nc(-c2ccc(OC3CCN(C(=O)C4(c5ccccc5)CC4)C3)cc2)no1` (centres undefined) in this work.
An RP-LC retention time of 878 s was found for `CC(C)NC(=O)c1c2c(cn(-c3ccccc3)c1=O)C(=O)CC(C)(C)C2` in this work.
An RP-LC retention time of 860 s was found for `COC(=O)c1cccc(N2C=C(C#N)S(=O)(=O)c3ccc(F)cc32)c1` in this work.
An RP-LC retention time of 960 s was found for `COc1ccc(-c2nc(-c3cn(-c4ccc(F)cc4)nn3)no2)cc1OC` in this work.
An RP-LC retention time of 963 s was found for `O=C(NC1(c2nc(-c3cccnc3)no2)CCCCC1)c1ccc(F)c(F)c1` in this work.
An RP-LC retention time of 973 s was found for `Cc1ccc(C(=O)Nc2nc(-c3ccccc3)cs2)o1` in this work.
An RP-LC retention time of 715 s was found for `CCc1cccc(-n2nnc(C(=O)NCCOC)c2-c2ccncc2)c1` in this work.
An RP-LC retention time of 1160 s was found for `O=C(NC1CCCCCC1)C1CCCN(c2ncc(-c3cccc(F)c3)cn2)C1` (centres undefined) in this work.
An RP-LC retention time of 836 s was found for `O=C(NC1CCCCCC1)C1CCN(S(=O)(=O)c2ccc(-c3noc(C4CC4)n3)cc2)CC1` in this work.
An RP-LC retention time of 589 s was found for `O=C(Nc1cccnc1)c1ccc(Cl)c(S(=O)(=O)N2CCOCC2)c1` in this work.
An RP-LC retention time of 1060 s was found for `O=S(=O)(Cc1ccccc1)N1CCC(c2noc(COCc3ccccc3)n2)CC1` in this work.
An RP-LC retention time of 998 s was found for `O=C(NCCc1c[nH]c2ccc(Cl)cc12)c1cc2n(n1)CCCN(Cc1ccc(Cl)cc1)C2=O` in this work.
An RP-LC retention time of 1030 s was found for `COC(=O)c1c(NC(=O)c2cc(C)no2)sc(C)c1C` in this work.
An RP-LC retention time of 642 s was found for `Cc1ccc(C(C)NC(=O)c2cn3c(n2)CCCC3)c(C)c1` (centres undefined) in this work.
An RP-LC retention time of 1130 s was found for `CCN1C(=O)C2(CCN(S(=O)(=O)c3ccc(C)c(C)c3)CC2)c2ccccc21` in this work.
An RP-LC retention time of 702 s was found for `O=C(NCC(c1cccnc1)N1CCc2ccccc21)C(=O)Nc1ccccc1[N+](=O)[O-]` (centres undefined) in this work.
An RP-LC retention time of 721 s was found for `O=C(Nc1cccc(Cl)c1)Nc1ncc(CCNc2ncnc3ccsc23)s1` in this work.
An RP-LC retention time of 737 s was found for `Cc1noc(-c2nn(C)c3c2CN(C(=O)c2cc(F)ccc2F)CC3)n1` in this work.
An RP-LC retention time of 872 s was found for `CCc1ccc(-n2nc(N3CCCC(C(=O)NCc4ccc(OC)cc4OC)C3)ccc2=O)cc1` (centres undefined) in this work.
An RP-LC retention time of 614 s was found for `Cc1nc2cc(N3CC(C(=O)Nc4ccc(C)c(C)c4)CC3=O)ccc2o1` (centres undefined) in this work.
An RP-LC retention time of 662 s was found for `CCS(=O)(=O)c1cccc(C(=O)Nc2nnc(-c3ccsc3)o2)c1` in this work.
An RP-LC retention time of 684 s was found for `Cc1ccn2c(NC(=O)c3ccc([N+](=O)[O-])cc3)c(-c3ccc(F)cc3)nc2c1` in this work.
An RP-LC retention time of 800 s was found for `CS(=O)(=O)N1CCCC(C(=O)Nc2nc(-c3nc4ccccc4s3)cs2)C1` (centres undefined) in this work.
An RP-LC retention time of 657 s was found for `O=C(Nc1ccccc1Br)N1CCN(CCn2c(C(F)(F)F)nc3cccnc32)CC1` in this work.
An RP-LC retention time of 961 s was found for `CCOCCCNS(=O)(=O)c1cc(-c2nc(C)c(C)s2)sc1C` in this work.
An RP-LC retention time of 1100 s was found for `Cc1ccc(CNC(=O)c2nnc(-c3ccc(S(=O)(=O)N4CCC(C)CC4)cc3)o2)cc1` in this work.
An RP-LC retention time of 759 s was found for `COc1ccc(CNC(=O)N2CCC(n3c(-c4ccco4)nc4cccnc43)C2)cc1` (centres undefined) in this work.
An RP-LC retention time of 1220 s was found for `O=S(=O)(c1ccc2c(c1)CCC2)N1CCc2nc(-c3ccc(F)cc3)ncc2C1` in this work.
An RP-LC retention time of 929 s was found for `CCn1nccc1-c1cccc(-c2noc(C(C)NC(=O)c3ccccc3)n2)c1` (centres undefined) in this work.
An RP-LC retention time of 968 s was found for `Cc1ccc(-c2ncc(NC(=O)C(C)(C)C)cn2)cc1` in this work.
An RP-LC retention time of 747 s was found for `CN1C(=O)c2cc(C(=O)NCc3cccc(F)c3)nn2CC1(C)C(=O)NCc1ccccc1` (centres undefined) in this work.
An RP-LC retention time of 638 s was found for `COc1ccc(CCS(=O)(=O)NCC2CCN(C(=O)c3cccn(C)c3=O)CC2)cc1` in this work.
An RP-LC retention time of 606 s was found for `Cc1ccsc1C(=O)N1CCc2[nH]cnc2C12CCCCC2` in this work.
An RP-LC retention time of 780 s was found for `CN(C)C(=O)c1ccc2c(c1)n(Cc1ccc(F)cc1)c(=O)c1ccnn12` in this work.
An RP-LC retention time of 774 s was found for `COc1ccc(NS(=O)(=O)c2cc3c(s2)CCN(C(=O)C2CC2)C3)cc1` in this work.
An RP-LC retention time of 1010 s was found for `O=C(C1CCCN(c2nc3cccnc3s2)C1)N1CCN(c2cccc(Cl)c2)CC1` (centres undefined) in this work.
An RP-LC retention time of 643 s was found for `COc1cc2c(cc1CNC(=O)Cn1c(C)nc3cc4c(cc31)OCCO4)OCCCO2` in this work.
